Laboratory results as given in US20210382058A1, “PATIENT SELECTION FOR TREATMENT OF MYC POSITIVE CANCERS WITH INDENOISOQUINOLINES” (Purdue Research Foundation, priority 2020, published 2021).
Read-outs that look alike come from different tables or passages of the source.

What was measured:
NCI-60 cancer cell lines = assay: NCI-60 cancer cell line drug screen (GI50, MGM); assay type: cell-based, human; conditions: Homo sapiens; for GI50: read-out: Antiproliferative Activities [GI50 (μM)]; for mean GI50 across NCI-60 panel (MGM): average of GI50 values across the entire panel of NCI-60 cancer cell lines
Experimental: Cancer cells were incubated with the test compounds at five concentrations ranging from 100 μM to 10 nM for 48 h. […] The approximate average of GI50 values across the entire panel of NCI-60 cancer cell lines for each compound was recorded as the MGM value.

human topoisomerase I = biological target: T1, human topoisomerase I (Homo sapiens, UniProt P11387); conditions: relative topoisomerase I inhibition levels, previously determined, six levels (0 - 5, +++++ = 5); cited from earlier work
T1 sequence (P11387 1-765): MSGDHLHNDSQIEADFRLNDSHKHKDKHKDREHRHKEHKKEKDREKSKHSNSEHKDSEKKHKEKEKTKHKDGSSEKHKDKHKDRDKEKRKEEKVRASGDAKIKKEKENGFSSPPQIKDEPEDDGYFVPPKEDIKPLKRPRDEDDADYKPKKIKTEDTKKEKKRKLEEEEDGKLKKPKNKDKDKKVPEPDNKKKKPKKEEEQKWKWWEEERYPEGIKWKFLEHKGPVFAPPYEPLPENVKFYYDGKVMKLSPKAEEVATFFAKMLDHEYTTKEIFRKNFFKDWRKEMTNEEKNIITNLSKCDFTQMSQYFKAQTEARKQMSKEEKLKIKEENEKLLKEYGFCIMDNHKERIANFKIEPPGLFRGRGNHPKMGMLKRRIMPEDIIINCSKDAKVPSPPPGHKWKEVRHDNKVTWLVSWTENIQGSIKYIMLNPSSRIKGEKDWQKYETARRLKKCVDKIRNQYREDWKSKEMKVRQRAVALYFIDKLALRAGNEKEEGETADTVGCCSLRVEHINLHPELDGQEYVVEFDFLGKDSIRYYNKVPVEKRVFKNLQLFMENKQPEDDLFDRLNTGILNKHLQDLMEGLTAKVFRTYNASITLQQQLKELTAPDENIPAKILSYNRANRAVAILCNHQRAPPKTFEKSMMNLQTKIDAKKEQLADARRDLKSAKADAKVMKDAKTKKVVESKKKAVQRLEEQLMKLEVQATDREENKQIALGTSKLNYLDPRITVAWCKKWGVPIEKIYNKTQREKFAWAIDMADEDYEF

[1] = A549, Non-Small Cell Lung Cancer, A549/ATCC
[2] = COLO 205, Colon Cancer, COLO 205
[3] = DU-145, Prostate Cancer, DU-145
[4] = EKVX, Non-Small Cell Lung Cancer, EKVX
[5] = HCC 2998, Colon Cancer, HCC-2998
[6] = HOP-92, Non-Small Cell Lung Cancer, HOP-92
[7] = Hs-578T, Breast Cancer, HS 578T
[8] = IGROV-1, Ovarian Cancer, IGROV1
[9] = MDA-MB-231, Breast Cancer, MDA-MB-231/ATCC
[10] = MDA-MB-435, Melanoma, MDA-MB-435
[11] = MDA-MB-468, Breast Cancer, MDA-MB-468
[12] = NCI-H23, Non-Small Cell Lung Cancer, NCI-H23
[13] = NCI-H226, Non-Small Cell Lung Cancer, NCI-H226
[14] = NCI-H322M, Non-Small Cell Lung Cancer, NCI-H322M
[15] = NCI-H460, Non-Small Cell Lung Cancer, NCI-H460
[16] = NCI-H522, Non-Small Cell Lung Cancer, NCI-H522
[17] = OVCAR-3, Ovarian Cancer, OVCAR-3
[18] = OVCAR-4, Ovarian Cancer, OVCAR-4
[19] = OVCAR-5, Ovarian Cancer, OVCAR-5
[20] = OVCAR-8, Ovarian Cancer, OVCAR-8
[21] = SK-OV-3, Ovarian Cancer, SK-OV-3

## CNCCCn1c2c(c3ccc([N+](=O)[O-])cc3c1=O)C(=O)c1cc(OC)cnc1-2 [Compound 10]
NCI-60 cancer cell lines; 786-0, Renal Cancer, 786-0
  GI50: 0.04 µM
NCI-60 cancer cell lines; A498, Renal Cancer, A498
  GI50: 0.03 µM
NCI-60 cancer cell lines; [1]
  GI50: 0.07 µM
NCI-60 cancer cell lines; ACHN, Renal Cancer, ACHN
  GI50: 0.04 µM
NCI-60 cancer cell lines; BT-549, Breast Cancer, BT-549
  GI50: 0.37 µM
NCI-60 cancer cell lines; CAKI-1, Renal Cancer, CAKI-1
  GI50: 0.03 µM
NCI-60 cancer cell lines; CCRF-CEM, Leukemia, CCRF-CEM
  GI50: 0.04 µM
NCI-60 cancer cell lines; [2]
  GI50: 0.06 µM
NCI-60 cancer cell lines; [3]
  GI50: 0.05 µM
NCI-60 cancer cell lines; [4]
  GI50: 0.27 µM
NCI-60 cancer cell lines; [5]
  GI50: 0.2 µM
NCI-60 cancer cell lines; HCT-15, Colon Cancer, HCT-15
  GI50: 0.12 µM
NCI-60 cancer cell lines; HCT-116, Colon Cancer, HCT-116
  GI50: 0.03 µM
NCI-60 cancer cell lines; HL-60, Leukemia, HL-60(TB)
  GI50: 0.04 µM
NCI-60 cancer cell lines; [6]
  GI50: 0.24 µM
NCI-60 cancer cell lines; HT-29, Colon Cancer, HT29
  GI50: 0.06 µM
NCI-60 cancer cell lines; [7]
  GI50: 1.17 µM
NCI-60 cancer cell lines; [8]
  GI50: 0.21 µM
NCI-60 cancer cell lines; K562, Leukemia, K-562
  GI50: 0.04 µM
NCI-60 cancer cell lines; KM12, Colon Cancer, KM12
  GI50: 0.16 µM
NCI-60 cancer cell lines; LOX IMVI, Melanoma, LOX IMVI
  GI50: 0.03 µM
NCI-60 cancer cell lines; Leukemia, SR
  GI50: 0.01 µM
NCI-60 cancer cell lines; MCF7, Breast Cancer, MCF7
  GI50: 0.01 µM
NCI-60 cancer cell lines; [9]
  GI50: 0.27 µM
NCI-60 cancer cell lines; [10]
  GI50: 0.15 µM
NCI-60 cancer cell lines; [11]
  GI50: 0.03 µM
NCI-60 cancer cell lines; MOLT-4, Leukemia, MOLT-4
  GI50: 0.03 µM
NCI-60 cancer cell lines; Malme-3M, Melanoma, MALME-3M
  GI50: 0.18 µM
NCI-60 cancer cell lines; Melanoma, M14
  GI50: 0.04 µM
NCI-60 cancer cell lines; [12]
  GI50: 0.04 µM
NCI-60 cancer cell lines; [13]
  GI50: 0.09 µM
NCI-60 cancer cell lines; [14]
  GI50: 0.16 µM
NCI-60 cancer cell lines; [15]
  GI50: 0.02 µM
NCI-60 cancer cell lines; [16]
  GI50: 0.08 µM
NCI-60 cancer cell lines; [17]
  GI50: 0.17 µM
NCI-60 cancer cell lines; [18]
  GI50: 0.17 µM
NCI-60 cancer cell lines; [19]
  GI50: 0.14 µM
NCI-60 cancer cell lines; [20]
  GI50: 0.09 µM
NCI-60 cancer cell lines; Ovarian Cancer, NCl/ADR-RES
  GI50: 0.06 µM
NCI-60 cancer cell lines; Prostate Cancer, PC-3
  GI50: 0.13 µM
NCI-60 cancer cell lines; RPMI-8226, Leukemia, RPMI-8226
  GI50: 0.08 µM
NCI-60 cancer cell lines; RXF 393, Renal Cancer, RXF 393
  GI50: 0.07 µM
NCI-60 cancer cell lines; Renal Cancer, U0-31
  GI50: 0.03 µM
NCI-60 cancer cell lines; SF-268, CNS Cancer, SF-268
  GI50: 0.07 µM
NCI-60 cancer cell lines; SF-295, CNS Cancer, SF-295
  GI50: 0.03 µM
NCI-60 cancer cell lines; SF-539, CNS Cancer, SF-539
  GI50: 0.05 µM
NCI-60 cancer cell lines; SK-MEL-2, Melanoma, SK-MEL-2
  GI50: 0.35 µM
NCI-60 cancer cell lines; SK-MEL-5, Melanoma, SK-MEL-5
  GI50: 0.11 µM
NCI-60 cancer cell lines; SK-MEL-28, Melanoma, SK-MEL-28
  GI50: 0.39 µM
NCI-60 cancer cell lines; [21]
  GI50: 0.06 µM
NCI-60 cancer cell lines; SN12C, Renal Cancer, SN12C
  GI50: 0.05 µM
NCI-60 cancer cell lines; SNB-19, CNS Cancer, SNB-19
  GI50: 0.04 µM
NCI-60 cancer cell lines; SNB-75, CNS Cancer, SNB-75
  GI50: 0.13 µM
NCI-60 cancer cell lines; SW-620, Colon Cancer, SW-620
  GI50: 0.03 µM
NCI-60 cancer cell lines; T47D, Breast Cancer, T-47D
  GI50: 0.03 µM
NCI-60 cancer cell lines; TK-10, Renal Cancer, TK-10
  GI50: 0.32 µM
NCI-60 cancer cell lines; U-251, CNS Cancer, U251
  GI50: 0.04 µM
NCI-60 cancer cell lines; UACC-257, Melanoma, UACC-257
  GI50: 0.18 µM
NCI-60 cancer cell lines
  mean GI50 across NCI-60 panel (MGM): 74 nM
Human topoisomerase I
  Top1 Inhibiton: +++ (strong inhibition, +++, MYC expression inhibited at 0.5 to 1.0 μM)

## COc1cnc2c(c1)C(=O)c1c-2n(CCCNCCN2CCOCC2)c(=O)c2cc([N+](=O)[O-])ccc12 [Compound 11]
NCI-60 cancer cell lines; 786-0, Renal Cancer, 786-0
  GI50: 0.22 µM
NCI-60 cancer cell lines; [1]
  GI50: 0.12 µM
NCI-60 cancer cell lines; ACHN, Renal Cancer, ACHN
  GI50: 0.04 µM
NCI-60 cancer cell lines; BT-549, Breast Cancer, BT-549
  GI50: 0.29 µM
NCI-60 cancer cell lines; CAKI-1, Renal Cancer, CAKI-1
  GI50: 0.04 µM
NCI-60 cancer cell lines; CCRF-CEM, Leukemia, CCRF-CEM
  GI50: 0.05 µM
NCI-60 cancer cell lines; [2]
  GI50: 0.3 µM
NCI-60 cancer cell lines; [3]
  GI50: 0.06 µM
NCI-60 cancer cell lines; [4]
  GI50: 0.45 µM
NCI-60 cancer cell lines; [5]
  GI50: 0.3 µM
NCI-60 cancer cell lines; HCT-15, Colon Cancer, HCT-15
  GI50: 0.3 µM
NCI-60 cancer cell lines; HL-60, Leukemia, HL-60(TB)
  GI50: 0.1 µM
NCI-60 cancer cell lines; [6]
  GI50: 0.87 µM
NCI-60 cancer cell lines; HT-29, Colon Cancer, HT29
  GI50: 0.15 µM
NCI-60 cancer cell lines; [7]
  GI50: 3.85 µM
NCI-60 cancer cell lines; [8]
  GI50: 0.42 µM
NCI-60 cancer cell lines; K562, Leukemia, K-562
  GI50: 0.23 µM
NCI-60 cancer cell lines; KM12, Colon Cancer, KM12
  GI50: 0.4 µM
NCI-60 cancer cell lines; LOX IMVI, Melanoma, LOX IMVI
  GI50: 0.04 µM
NCI-60 cancer cell lines; Leukemia, SR
  GI50: 0.02 µM
NCI-60 cancer cell lines; MCF7, Breast Cancer, MCF7
  GI50: 0.03 µM
NCI-60 cancer cell lines; [9]
  GI50: 0.63 µM
NCI-60 cancer cell lines; [10]
  GI50: 0.42 µM
NCI-60 cancer cell lines; [11]
  GI50: 0.12 µM
NCI-60 cancer cell lines; MOLT-4, Leukemia, MOLT-4
  GI50: 0.03 µM
NCI-60 cancer cell lines; Malme-3M, Melanoma, MALME-3M
  GI50: 0.34 µM
NCI-60 cancer cell lines; Melanoma, M14
  GI50: 0.07 µM
NCI-60 cancer cell lines; [12]
  GI50: 0.15 µM
NCI-60 cancer cell lines; [13]
  GI50: 0.17 µM
NCI-60 cancer cell lines; [14]
  GI50: 0.28 µM
NCI-60 cancer cell lines; [15]
  GI50: 0.04 µM
NCI-60 cancer cell lines; [16]
  GI50: 0.08 µM
NCI-60 cancer cell lines; [17]
  GI50: 0.32 µM
NCI-60 cancer cell lines; [18]
  GI50: 0.33 µM
NCI-60 cancer cell lines; [19]
  GI50: 0.45 µM
NCI-60 cancer cell lines; [20]
  GI50: 0.17 µM
NCI-60 cancer cell lines; Ovarian Cancer, NCl/ADR-RES
  GI50: 0.13 µM
NCI-60 cancer cell lines; Prostate Cancer, PC-3
  GI50: 0.57 µM
NCI-60 cancer cell lines; RPMI-8226, Leukemia, RPMI-8226
  GI50: 0.17 µM
NCI-60 cancer cell lines; RXF 393, Renal Cancer, RXF 393
  GI50: 0.39 µM
NCI-60 cancer cell lines; Renal Cancer, U0-31
  GI50: 0.05 µM
NCI-60 cancer cell lines; SF-268, CNS Cancer, SF-268
  GI50: 0.08 µM
NCI-60 cancer cell lines; SF-295, CNS Cancer, SF-295
  GI50: 0.07 µM
NCI-60 cancer cell lines; SF-539, CNS Cancer, SF-539
  GI50: 0.31 µM
NCI-60 cancer cell lines; SK-MEL-2, Melanoma, SK-MEL-2
  GI50: 1.59 µM
NCI-60 cancer cell lines; SK-MEL-5, Melanoma, SK-MEL-5
  GI50: 0.26 µM
NCI-60 cancer cell lines; SK-MEL-28, Melanoma, SK-MEL-28
  GI50: 1.13 µM
NCI-60 cancer cell lines; [21]
  GI50: 0.14 µM
NCI-60 cancer cell lines; SNB-19, CNS Cancer, SNB-19
  GI50: 0.11 µM
NCI-60 cancer cell lines; SNB-75, CNS Cancer, SNB-75
  GI50: 0.27 µM
NCI-60 cancer cell lines; SW-620, Colon Cancer, SW-620
  GI50: 0.13 µM
NCI-60 cancer cell lines; T47D, Breast Cancer, T-47D
  GI50: 0.11 µM
NCI-60 cancer cell lines; TK-10, Renal Cancer, TK-10
  GI50: 0.73 µM
NCI-60 cancer cell lines; U-251, CNS Cancer, U251
  GI50: 0.08 µM
NCI-60 cancer cell lines; UACC-62, Melanoma, UACC-62
  GI50: 0.04 µM
NCI-60 cancer cell lines; UACC-257, Melanoma, UACC-257
  GI50: 0.59 µM
NCI-60 cancer cell lines
  mean GI50 across NCI-60 panel (MGM): 177 nM
Human topoisomerase I
  Top1 Inhibiton: +++ (strong inhibition, +++, MYC expression inhibited at 0.5 to 1.0 μM)
